From publication PMC8624133, “10th Trends in Medical Mycology Held on 8 to 11 October 2021, Aberdeen, Scotland, Organized by the European Confederation of Medical Mycology (ECMM)” (Journal of Fungi, 2021)
≈ marks a conversion by molar mass, not a printed value. Read-outs that look alike come from different tables or passages of the source.

What was measured:
[1] = tested on: C. krusei; type: cell-based, Candida krusei
[2] = tested on: A. fumigatus clinical isolates; assay: Susceptibility of clinical isolates from CF patients; conditions: all 10 clinical isolates
[3] = tested on: Exophiala phaeomuriformis; assay: MIC, CLSI M27-A3; type: cell-based; conditions: read-out: MIC values
Summary of the method: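 Isolate recovered from aviation kerosene by 0.22 μm membrane filtration, grown on potato dextrose agar at 30 °C for seven days and identified by ITS sequencing. Susceptibility to clinical antifungals tested per CLSI M27-A3.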

[4] = tested on: Rasamsonia argillacea species complex; assay: Antifungal susceptibility testing; type: cell-based; conditions: sputum isolate of a CF patient
[5] = tested on: C. albicans; type: cell-based, Candida albicans
[6] = tested on: Trichosporon isolates; assay: CLSI broth microdilution; type: cell-based, Trichosporon spp.
[7] = tested on: biofilm of filamentous fungi; assay: Biofilm XTT-menadione assay; type: cell-based
Protocol: Materials & Methods: Eight strains are studied: Fusarium solani, Fusarium dimerum, Lomentospora prolificans, Scedosporium apiospermum, Aspergillus flavus, Aspergillus fumigatus and two azole resistant A. fumigatus.
Biofilms were formed after a 90-min adhesion phase followed by the addition of RPMI medium and after a 48 h at 37 °C. Antifungals at different concentrations were added, either after the adhesion phase or after the 48 h of incubation to study their effect on the formation and on the preformed biofilm. After washing, a mixture of XTT-menadione was added to the wells. After 60 min at 37 °C, the OD (optical density) is measured at 450 and 630 nm. An optical microscope observation allows the visualization of elements of the biofilm.

[8] = tested on: F. verticillioides; assay: Etest susceptibility; type: cell-based, Fusarium verticillioides
[9] = tested on: C. parapsilosis; assay: Candidemia Netherlands, MIC distributions against EUCAST ECOFF; type: cell-based, Candida parapsilosis
[10] = tested on: Candida isolates; type: cell-based, Candida spp.
[11] = tested on: C. parapsilosis; type: cell-based, Candida parapsilosis
[12] = tested on: C. tropicalis; type: cell-based, Candida tropicalis
[13] = tested on: C. glabrata; type: cell-based, Candida glabrata
[14] = tested on: C. auris; assay: CLSI M27-A3 broth microdilution; type: cell-based, Candida auris; conditions: for MIC: Candidozyma auris, read-out: GM MIC
[15] = tested on: C. parapsilosis; assay: Vitek and EUCAST microdilution susceptibility; type: cell-based, Candida parapsilosis; conditions: Lodderomyces parapsilosis
[16] = tested on: C. albicans; assay: Candidemia Netherlands, MIC distributions against EUCAST ECOFF; type: cell-based, Candida albicans
[17] = tested on: C. guilliermondii; assay: EUCAST E. Def 7.3.2 microdilution; type: cell-based, Candida guilliermondii; conditions: for MIC50 / MIC90 / GM / MIC Range: n = 62
[18] = tested on: C. auris clinical strains; assay: organism not typed; type: cell-based, Candida auris; conditions: for MIC: range, 78 strains from patients with COVID-19
[19] = tested on: nine strains of Candida spp.; assay: CLSI M27-A3 broth microdilution; type: cell-based; conditions: nine strains; for MIC: Candida, read-out: GM MIC
[20] = tested on: Phaeoacremonium parasiticum; assay: Antifungal susceptibility testing; type: cell-based
Protocol: Results: Cultures for bacteria were sterile. Culture on Sabouraud was positive after 5 days of incubation, showing slow growing and initially white colonies. […] Its identification was performed by sequencing the internal transcribed spacer (ITS) region of ribosomal DNA, being the isolate identified as Phaeoacremonium parasiticum (100% homology).

[21] = tested on: Other species of Candida; type: cell-based, Candida spp.
[22] = tested on: azole-resistant A. fumigatus SS clinical strains; assay: EUCAST E.DEF 9.3.2; type: cell-based; conditions: Aspergillus fumigatus
[23] = Triazole drug levels in ABPA patients with asthma; type: in vivo, human; conditions: 452 patients, Oct 2009 to March 2021
Text: Materials & Methods: This was a retrospective single-centre cohort study evaluating longitudinal outcomes in non-cystic fibrosis (CF) ABPA patients with underlying chronic lung disease (asthma), and description of treatment approaches. Statistical Analysis System (SAS) programming was used for data integration from multiple hospital electronic systems, for patient identification and data analysis. Criteria for inclusion were patients with a background of asthma, serum Total IgE >1000 IU/mL and a positive Aspergillus IgE, with or without a positive culture for A. fumigatus from a respiratory sample. Data collected included demographics, lung function severity, disease activity serological markers (Aspergillus IgE, Aspergillus IgG, Total IgE) and triazole levels. In this study the impact of fungal therapy on disease outcomes was assessed.

[24] = tested on: C. auris Isolate B and Isolate C; assay: microbe, parasite or virus in culture; type: cell-based, Candida auris; conditions: for reduction in MIC: Isolate C with ERG11 WT in place of K143R
[25] = tested on: A. fumigatus complex; conditions: share of isolates, n = 59, EUCAST clinical breakpoints
[26] = tested on: McLDM-F5; assay: microbe, parasite or virus in culture; type: cell-based, Saccharomyces cerevisiae AD2Δgal; conditions: Saccharomyces cerevisiae, read-out: mean MIC
[27] = tested on: McLDM-F1-CPR; assay: microbe, parasite or virus in culture; type: cell-based, Saccharomyces cerevisiae AD2Δgal; conditions: Saccharomyces cerevisiae, read-out: mean MIC
[28] = tested on: Candida catenulata; assay: CLSI M44 agar diffusion; type: cell-based
[29] = strain from pleural fluid of an ICU patient, no mutations in cyp51A
[30] = two strains from a cystic fibrosis patient, TR34/L98H

C[C@@H]1[C@H](O)[C@@H](C)/C=C/C=C/C=C/C=C/C=C/C=C/C=C/[C@H](O[C@@H]2O[C@H](C)[C@@H](O)[C@H](N)[C@@H]2O)C[C@@H]2O[C@](O)(C[C@@H](O)C[C@@H](O)[C@H](O)CC[C@@H](O)C[C@@H](O)CC(=O)O[C@H]1C)C[C@H](O)[C@H]2C(=O)O [amphotericin B]
S (sensitive) isolates, n (%) [1]: 7 (100%)
susceptibility [2]: susceptible
MIC [3]: 2 µg/mL (≈ 2.16 µM)
minimal inhibitory concentrations (MIC) [4]: high minimal inhibitory concentrations
I (intermediate) isolates, n (%) [5]: 4 (2%)
S (sensitive) isolates, n (%) [5]: 196 (97%)
MIC ([6]; read-out: GM MIC): 0.9 µg/mL (≈ 0.974 µM)
number of strains with 100% inhibition of biofilm formation [7]: two
minimum inhibitory concentration (MIC), in words [8]: lower values
isolates within the wildtype distribution range [9]: 92.9%
susceptibility [10]: susceptible
I (intermediate) isolates, n (%) [11]: 1 (0.6)
S (sensitive) isolates, n (%) [11]: 169 (98.3%)
I (intermediate) isolates, n (%) [12]: 0 (0%)
S (sensitive) isolates, n (%) [12]: 57 (100%)
I (intermediate) isolates, n (%) [13]: 2 (2.8%)
S (sensitive) isolates, n (%) [13]: 69 (97.2%)
MIC Range [14]: 0.125 to 2 µg/mL
MIC [14]: 0.43 µg/mL (≈ 0.465 µM)
MIC [15]: 0.5 µg/mL (≈ 0.541 µM)
isolates within the wildtype distribution range [16]: 100%
MIC50 ([17]; Meyerozyma guilliermondii): 0.25 µg/mL (≈ 0.271 µM)
MIC90 ([17]; Meyerozyma guilliermondii): 0.25 µg/mL (≈ 0.271 µM)
GM [17]: 0.177 µg/mL
MIC Range [17]: 0.06 to 0.5 µg/mL
MIC [18]: 0.12 to 2 µg/mL (≈ 0.13 to 2.16 µM)
MIC [19]: 0.13 µg/mL (≈ 0.141 µM)
MIC Range [19]: 0.03 to 2 µg/mL
minimal inhibitory concentrations (MIC), in words [20]: higher
I (intermediate) isolates, n (%) [21]: 0 (0%)
S (sensitive) isolates, n (%) [21]: 26 (100%)

CCC(C)n1ncn(-c2ccc(N3CCN(c4ccc(OCC5COC(Cn6cncn6)(c6ccc(Cl)cc6Cl)O5)cc4)CC3)cc2)c1=O (stereo not drawn) [itraconazole]
susceptibility [2]: susceptible
MIC [3]: 0.25 µg/mL (≈ 0.354 µM)
MIC [22, 29]: > 8 µg/mL
MIC [22, 30]: > 8 µg/mL
minimum inhibitory concentration (MIC), in words [8]: high values
median trough drug level [23]: 0.76 mg/L
MIC Range [14]: 0.125 to 1 µg/mL
MIC [14]: 0.12 µg/mL (≈ 0.17 µM)
change of MIC [24]: largely unchanged
reduction in MIC [24]: unchanged
MIC [18]: 0.12 to 16 µg/mL (≈ 0.17 to 22.7 µM)
MIC [19]: 0.11 µg/mL (≈ 0.156 µM)
Resistance [25]: 5%

C[C@@H](c1ncncc1F)[C@](O)(Cn1cncn1)c1ccc(F)cc1F [voriconazole]
S (sensitive) isolates, n (%) [1]: 7 (100%)
susceptibility [2]: susceptible
MIC [3]: 0.25 µg/mL (≈ 0.716 µM)
MIC [22, 29]: 1 µg/mL (≈ 2.86 µM)
MIC [22, 30]: 4 µg/mL (≈ 11.5 µM)
minimal inhibitory concentrations (MIC) [4]: high minimal inhibitory concentrations
I (intermediate) isolates, n (%) [5]: 0 (0%)
R (resistant) isolates, n (%) [5]: S 200 (99%) I 0 (0%) R 2 (1%)
S (sensitive) isolates, n (%) [5]: 200 (99%)
MIC ([6]; read-out: GM MIC): 0.075 µg/mL (≈ 0.215 µM)
number of strains with 100% inhibition of biofilm formation [7]: one
minimum inhibitory concentration (MIC), in words [8]: lower values
MIC [26]: 0.58 µg/mL (≈ 1.66 µM)
I (intermediate) isolates, n (%) [11]: 1 (0.6%)
R (resistant) isolates, n (%) [11]: S 170 (98.8%) I 1 (0.6%) R 1 (0.6%)
S (sensitive) isolates, n (%) [11]: 170 (98.8%)
median trough drug level [23]: 0.82 mg/L
MIC [27]: 0.29 µg/mL (≈ 0.83 µM)
I (intermediate) isolates, n (%) [12]: 0 (0%)
R (resistant) isolates, n (%) [12]: S 57 (100%) I 0 (0%) R 0 (0%)
S (sensitive) isolates, n (%) [12]: 57 (100%)
I (intermediate) isolates, n (%) [13]: 2 (2.8%)
R (resistant) isolates, n (%) [13]: S 62 (87.3%) I 2 (2.8%) R 7 (9.9%)
S (sensitive) isolates, n (%) [13]: 62 (87.3%)
resistant isolates [28]: 19%
reduction in MIC [24]: 2 fold
MIC [18]: 0.06 to 8 µg/mL (≈ 0.172 to 22.9 µM)
minimal inhibitory concentrations (MIC), in words [20]: low
Resistance [25]: 9%
I (intermediate) isolates, n (%) [21]: 0 (0%)
R (resistant) isolates, n (%) [21]: S 26 (100%) I 0 (0%) R 0 (0%)
S (sensitive) isolates, n (%) [21]: 26 (100%)

OC(Cn1cncn1)(Cn1cncn1)c1ccc(F)cc1F [fluconazole]
I (intermediate) isolates, n (%) [5]: 0 (0%)
R (resistant) isolates, n (%) [5]: 3 (1.5%)
S (sensitive) isolates, n (%) [5]: 199 (98.5%)
MIC ([6]; read-out: high MICs): 8 µg/mL (≈ 26.1 µM)
minimum inhibitory concentration (MIC), in words [8]: high values
isolates within the wildtype distribution range [9]: 92.5%
resistant isolates [10]: 6.4%
MIC [26]: 42.7 µg/mL (≈ 139 µM)
I (intermediate) isolates, n (%) [11]: 0 (0%)
R (resistant) isolates, n (%) [11]: 2 (1.2%)
S (sensitive) isolates, n (%) [11]: 171 (98.8%)
MIC [27]: 14.7 µg/mL (≈ 47.9 µM)
I (intermediate) isolates, n (%) [12]: 0 (0%)
R (resistant) isolates, n (%) [12]: 0 (0%)
S (sensitive) isolates, n (%) [12]: 57 (100%)
I (intermediate) isolates, n (%) [13]: 3 (4.2%)
R (resistant) isolates, n (%) [13]: 12 (16.9%)
S (sensitive) isolates, n (%) [13]: 56 (78.9%)
resistant isolates ([28]; […], discs 25 μg fluconazole, 1 μg voriconazole): 19%
MIC Range [14]: 1 to 32 µg/mL
MIC [14]: 5.26 µg/mL (≈ 17.2 µM)
MIC [15]: 8 µg/mL (≈ 26.1 µM)
decrease in MIC [24]: 4 fold
MIC ([24]; Candidozyma auris, Isolate B (ERG11 Y132F, TAC1B A583S)): 128 µg/mL (≈ 418 µM)
reduction in MIC [24]: 8 fold
isolates within the wildtype distribution range [16]: 96.8%
MIC of non wild-type isolates [17]: 64 µg/mL
MIC50 ([17]; Meyerozyma guilliermondii): 8 µg/mL (≈ 26.1 µM)
MIC90 ([17]; Meyerozyma guilliermondii): 16 µg/mL (≈ 52.2 µM)
MIC ([17]; Meyerozyma guilliermondii, read-out: MIC of non wild-type isolates): 32 µg/mL
GM [17]: 7.655 µg/mL
MIC Range [17]: 0.125 to 64 µg/mL
Resistance ([18]; CDC tentative breakpoints): 100%
MIC [19]: 4.66 µg/mL (≈ 15.2 µM)
MIC Range [19]: 0.5 to 32 µg/mL
I (intermediate) isolates, n (%) [21]: 0 (0%)
R (resistant) isolates, n (%) [21]: 0 (0%)
S (sensitive) isolates, n (%) [21]: 25 (100%)
